From the supplement of paper PMC11061612

Columns and labels:
Test in all cases: combination Emax (second highest fraction inhibited in the dose matrix, 72 h); higher = more inhibition; extreme values may be limits of the assay
[1] = tested on: SNU-5 (Gastric Carcinoma)
Summary of the method: (§1)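 Cell lines grown in DMEM/F12 or RPMI with 10% FBS were plated in 1536-well plates and held 24 hours at 37°C, 5% CO2 before 72 hours of exposure to two-drug dose matrices, with DMSO typically at 0.2%. CellTiter-Glo 2.0 luminescence gave viability, which was converted to inhibition. Vehicle wells were set to 0 and blank wells to 1. Combination Emax is the second-highest inhibition in the matrix, and Bliss excess is the observed combination effect minus the expected EA + EB − EA·EB, where EA and EB are the single-agent effects.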

[2] = tested on: Ramos-2G6-4C10 (Burkitt's Lymphoma)
Summary of the method: as §1

[3] = tested on: HT-1376 (Bladder Carcinoma)
Summary of the method: as §1

[4] = tested on: LS-180 (Colorectal Carcinoma)
Summary of the method: as §1

[5] = tested on: Daoy (Other Solid Carcinomas)
Summary of the method: as §1

[6] = tested on: CAL-148 (Breast Carcinoma)
Summary of the method: as §1

[7] = tested on: RO82-W-1 (Thyroid Gland Carcinoma)
Summary of the method: as §1

[8] = tested on: Hs-578-T (Breast Carcinoma)
Summary of the method: as §1

[9] = tested on: LNCaP-Clone-FGC (Prostate Carcinoma)
Summary of the method: as §1

[10] = tested on: KURAMOCHI (Ovarian Carcinoma)
Summary of the method: as §1

T98G (Glioblastoma) = tested on: T98G (Glioblastoma)
Summary of the method: as §1

[11] = tested on: KP-1N (Pancreatic Carcinoma)
Summary of the method: as §1

SMILES | combination Emax [1] | combination Emax [2] | combination Emax [3] | combination Emax [4] | combination Emax [5] | combination Emax [6] | combination Emax [7] | combination Emax [8] | combination Emax [9] | combination Emax [10] | combination Emax (T98G (Glioblastoma)) | combination Emax [11]
COc1cc2ncnc(Nc3ccc(F)c(Cl)c3)c2cc1OCCCN1CCOCC1 [Gefitinib] + CC(C)n1c(=O)n(C)c2cnc3cc(F)c(-c4ccc(OCCCN5CCCCC5)nc4)cc3c21 [AZD1390] (first compound max 10 µM, 7x7, partner max 0.3 µM) | 0.178 | 0.148 | 0.177 | 0.292 | 0.0924 | 0.142 | 0.164 | 0.319 | 0.089 | 0.128 | 0.12 | 0.004
CS(=O)(=O)CCNCc1ccc(-c2ccc3ncnc(Nc4ccc(OCc5cccc(F)c5)c(Cl)c4)c3c2)o1 [Lapatinib] + C[C@@H](Oc1cc(-c2cnn(C3CCNCC3)c2)cnc1N)c1c(Cl)ccc(F)c1Cl [Crizotinib] (first compound max 10 µM, 7x7, partner max 10 µM) | 0.927 | 0.898 | 0.255 | 0.908 | 0.934 | 0.771 | 0.203 | 0.991 | 0.804 | 0.721 | 0.949 | 0.809
CC(=O)c1c(C)c2cnc(Nc3ccc(N4CCNCC4)cn3)nc2n(C2CCCC2)c1=O [Palbociclib] + CC1(C)CCC(CN2CCN(c3ccc(C(=O)NS(=O)(=O)c4ccc(NCC5CCOCC5)c([N+](=O)[O-])c4)c(Oc4cnc5[nH]ccc5c4)c3)CC2)=C(c2ccc(Cl)cc2)C1 [Venetoclax] (first compound max 10 µM, 7x7, partner max 1 µM) | 0.336 | 0.355 | 0.0784 | 0.61 | 0.218 | 0.161 | 0.174 | 0.189 | 0.405 | 0.0917 | 0.355 | 0.212
CC(=O)c1c(C)c2cnc(Nc3ccc(N4CCNCC4)cn3)nc2n(C2CCCC2)c1=O [Palbociclib] + Cc1c2c(nn1C)CSCc1cc(n(C)n1)CSc1cc(c3ccccc3c1)OCCCc1c(C(=O)O)n(C)c3c-2c(Cl)ccc13 [AZD5991] (first compound max 10 µM, 7x7, partner max 1 µM) | 0.347 | 0.986 | 0.216 | 0.521 | 0.21 | 0.376 | 0.189 | 0.372 | 0.5 | 0.358 | 0.4 | 0.212
CC(=O)c1c(C)c2cnc(Nc3ccc(N4CCNCC4)cn3)nc2n(C2CCCC2)c1=O [Palbociclib] + Cn1cnc2c(F)c(Nc3ccc(Br)cc3Cl)c(C(=O)NOCCO)cc21 [Selumetinib] (first compound max 10 µM, 7x7, partner max 10 µM) | 0.649 | 0.336 | 0.0425 | 0.759 | 0.18 | 0.303 | 0.178 | 0.344 | 0.451 | 0.227 | 0.374 | 0.196
COc1cccc(OCCCN)c1-c1cc(Nc2cnc(C#N)cn2)n[nH]1 [Prexasertib] + C=CCn1c(=O)c2cnc(Nc3ccc(N4CCN(C)CC4)cc3)nc2n1-c1cccc(C(C)(C)O)n1 [AZD1775] (first compound max 1 µM, partner max 1 µM) | 0.969 | 1 | 0.422 | 0.819 | 0.985 | 1 | 0.553 | 0.942 | 0.846 | 0.773 | 0.917 | 0.575
COc1cccc(OCCCN)c1-c1cc(Nc2cnc(C#N)cn2)n[nH]1 [Prexasertib] + CCc1c2c(nc3ccc(O)cc13)-c1cc3c(c(=O)n1C2)COC(=O)[C@]3(O)CC [SN-38] (first compound max 1 µM, 7x7, partner max 0.3 µM) | 1 | 1 | 0.529 | 0.759 | 0.999 | 0.935 | 0.511 | 0.982 | 0.766 | 0.897 | 0.904 | 0.64
COc1cccc(OCCCN)c1-c1cc(Nc2cnc(C#N)cn2)n[nH]1 [Prexasertib] + CN(C)CCCOc1ccc(-c2ccc3ncc4c(c3c2)n(C2CCOCC2)c(=O)n4C)cn1 [AZD0156] (first compound max 1 µM, 7x7, partner max 1 µM) | 0.926 | 1 | 0.471 | 0.789 | 0.958 | 0.642 | 0.572 | 0.942 | 0.827 | 0.706 | 0.899 | 0.298
COc1cccc(OCCCN)c1-c1cc(Nc2cnc(C#N)cn2)n[nH]1 [Prexasertib] + C[C@@H]1COCCN1C2=NC(=NC(=C2)C3(CC3)[S@](=N)(=O)C)C4=C5C=CNC5=NC=C4 [AZD6738] (first compound max 1 µM, 7x7, partner max 10 µM) | 0.975 | 1 | 0.503 | 0.819 | 0.956 | 0.895 | 0.441 | 0.912 | 0.842 | 0.647 | 0.905 | 0.324
COc1cccc(OCCCN)c1-c1cc(Nc2cnc(C#N)cn2)n[nH]1 [Prexasertib] + Cc1cc2ncnn2cc1Nc1ncc2c(n1)n(C1CCOCC1)c(=O)n2C [AZD7648] (first compound max 1 µM, 7x7, partner max 10 µM) | 0.983 | 1 | 0.571 | 0.789 | 0.965 | 0.734 | 0.45 | 0.925 | 0.83 | 0.672 | 0.893 | 0.246
COc1cccc(OCCCN)c1-c1cc(Nc2cnc(C#N)cn2)n[nH]1 [Prexasertib] + O=C(c1cc(Cc2n[nH]c(=O)c3ccccc23)ccc1F)N1CCN(C(=O)C2CC2)CC1 [Olaparib] (first compound max 1 µM, 7x7, partner max 10 µM) | 0.968 | 1 | 0.479 | 0.724 | 0.983 | 0.696 | 0.45 | 0.925 | 0.851 | 0.68 | 0.757 | 0.332
COc1cc2c(cc1OCCCCCOc1cc3c(cc1OC)C(=O)N1C=C(C)C[C@H]1C=N3)N=C[C@@H]1CC(C)=CN1C2=O [SG3199] + O=C(c1cc(Cc2n[nH]c(=O)c3ccccc23)ccc1F)N1CCN(C(=O)C2CC2)CC1 [Olaparib] (first compound max 0.001 µM, 7x7, partner max 10 µM) | 0.129 | 0 | 0.121 | 0.181 | 0.42 | 0.211 | 0.17 | 0.256 | 0.416 | 0.129 | 0.114 | 0.18
CCc1c2c(nc3ccc(O)cc13)-c1cc3c(c(=O)n1C2)COC(=O)[C@]3(O)CC [SN-38] + CN(C)CCCOc1ccc(-c2ccc3ncc4c(c3c2)n(C2CCOCC2)c(=O)n4C)cn1 [AZD0156] (first compound max 0.3 µM, 7x7, partner max 1 µM) | 0.945 | 0.98 | 0.118 | 0.713 | 1 | 0.912 | 0.46 | 0.635 | 0.76 | 0.659 | 0.546 | 0.627
C[C@@H](c1ccc2nccn2c1)n1nnc2ncc(-c3cnn(C)c3)nc21 [Savolitinib] + CC1(C)CCC(CN2CCN(c3ccc(C(=O)NS(=O)(=O)c4ccc(NCC5CCOCC5)c([N+](=O)[O-])c4)c(Oc4cnc5[nH]ccc5c4)c3)CC2)=C(c2ccc(Cl)cc2)C1 [Venetoclax] (first compound max 1 µM, 7x7, partner max 1 µM) | 0.847 | 0.169 | 0.103 | 0.205 | 0.152 | 0.143 | 0.169 | 0.312 | 0.0523 | 0.15 | 0.159 | 0.13
C[C@@H](c1ccc2nccn2c1)n1nnc2ncc(-c3cnn(C)c3)nc21 [Savolitinib] + Cc1c2c(nn1C)CSCc1cc(n(C)n1)CSc1cc(c3ccccc3c1)OCCCc1c(C(=O)O)n(C)c3c-2c(Cl)ccc13 [AZD5991] (first compound max 1 µM, 7x7, partner max 1 µM) | 0.937 | 0.975 | 0.179 | 0.199 | 0.126 | 0.275 | 0.169 | 0.47 | 0.163 | 0.286 | 0.12 | 0.194
Cn1cnc2c(F)c(Nc3ccc(Br)cc3Cl)c(C(=O)NOCCO)cc21 [Selumetinib] + C=CCn1c(=O)c2cnc(Nc3ccc(N4CCN(C)CC4)cc3)nc2n1-c1cccc(C(C)(C)O)n1 [AZD1775] (first compound max 10 µM, partner max 1 µM) | 0.638 | 0.997 | 0.362 | 0.604 | 0.844 | 0.849 | 0.183 | 0.577 | 0.625 | 0.65 | 0.699 | 0.257
Cn1cnc2c(F)c(Nc3ccc(Br)cc3Cl)c(C(=O)NOCCO)cc21 [Selumetinib] + CC(C)n1c(=O)n(C)c2cnc3cc(F)c(-c4ccc(OCCCN5CCCCC5)nc4)cc3c21 [AZD1390] (first compound max 10 µM, 7x7, partner max 0.3 µM) | 0.54 | 0.137 | 0.157 | 0.573 | 0.126 | 0.158 | 0.125 | 0.369 | 0.0956 | 0.194 | 0.191 | 0.102
Cn1cnc2c(F)c(Nc3ccc(Br)cc3Cl)c(C(=O)NOCCO)cc21 [Selumetinib] + CCN(CCO)CCCOc1ccc2c(Nc3cc(CC(=O)Nc4cccc(F)c4)[nH]n3)ncnc2c1 [AZD2811] (first compound max 10 µM, 7x7, partner max 1 µM) | 0.569 | 0.117 | 0.198 | 0.623 | 0.356 | 0.927 | 0.203 | 0.491 | 0.284 | 0.251 | 0.226 | 0.135
Cn1cnc2c(F)c(Nc3ccc(Br)cc3Cl)c(C(=O)NOCCO)cc21 [Selumetinib] + C[C@@H]1COCCN1C2=NC(=NC(=C2)C3(CC3)[S@](=N)(=O)C)C4=C5C=CNC5=NC=C4 [AZD6738] (first compound max 10 µM, 7x7, partner max 10 µM) | 0.961 | 0.847 | 0.467 | 0.76 | 0.882 | 0.825 | 0.266 | 0.628 | 0.673 | 0.554 | 0.731 | 0.175
